The results in this text go back to ChEMBL document CHEMBL3046682, “Synthesis of lactosylated piperazinyl porphyrins and their hepatocyte-selective targeting” (Med Chem Res, 2007).

In brackets after ≈: the same amount, converted by molar mass.

For one series, the system named is Zone of skin. The series can be described thus: Biodistribution in tumor-bearing Mus musculus KM (mouse) skin at 10 mg/kg, ip after 3 to 24 hr by fluorescence assay. The format is ADME, organism-based. Further details: dose 10 mg/kg, route intraperitoneal; call rule not given here. The note with it: in vivo.
Series [1] relates to Liver. In words: Biodistribution in tumor-bearing Mus musculus KM (mouse) liver at 10 mg/kg, ip after 3 to 24 hr by fluorescence assay. In kind it is ADME, organism-based. Further details: dose 10 mg/kg, route intraperitoneal. The conditions noted are these: in vivo.
The subject of series [2] is Liver. In words: Biodistribution in tumor-bearing Mus musculus KM (mouse) liver at 10 mg/kg, ip after 144 hr by fluorescence assay. The format is ADME, organism-based. The note with it: in vivo. The arrangement: dose 10 mg/kg, route intraperitoneal.
Series [3] is described as follows: Cytotoxicity against Homo sapiens (human) Bel7404 cells assessed as cell death at 6.25 ug/ml after 18 hr by MTT assay in absence of light. In kind it is functional, BEL-7404.
Series [4] can be described thus: Cytotoxicity against Homo sapiens (human) MCG cells assessed as cell death at 6.25 ug/ml after 18 hr by MTT assay in absence of light. The format is functional. (In general: Tetrazolium dyes change colour on reduction, which living cells bring about.)
Series [5] can be described thus: Photocytotoxicity against Homo sapiens (human) HNE1 cells assessed as cell death at 6.25 ug/ml after 18 hr by MTT assay in presence of light. The format is functional.
The nature of series [6]: Cytotoxicity against Homo sapiens (human) HNE1 cells assessed as cell death at 6.25 ug/ml after 18 hr by MTT assay in absence of light. The format is functional.
A short description of series [7]: Photocytotoxicity against Homo sapiens (human) Bel7404 cells assessed as cell death at 6.25 ug/ml after 18 hr by MTT assay in presence of light. In kind it is functional, BEL-7404.
Series [8] in a line: Cytotoxicity against Homo sapiens (human) HNE1 cells assessed as cell death after 48 hr by MTT assay in absence of light. In kind it is functional. The note with it: HNE1, 48 h, read-out: ID50 (the source's name).
Series [9] can be described thus: Photocytotoxicity against Homo sapiens (human) MCG cells assessed as cell death at 6.25 ug/ml after 18 hr by MTT assay in presence of light. The format is functional.
Series [10] in a line: Cytotoxicity against Homo sapiens (human) Bel7404 cells assessed as cell death after 48 hr by MTT assay in absence of light. The format is functional. The note with it: BEL-7404, 48 h, read-out: ID50 (the source's name).
Series [11] can be described thus: Cytotoxicity against Homo sapiens (human) MCG cells assessed as cell death after 48 hr by MTT assay in absence of light. In kind it is functional. The note with it: read-out: ID50 (the source's name).
Series [12] can be described thus: Solubility of the compound in water. The format is physicochemical. The conditions noted are these: buffer.

In the case of `O=C([C@H](O)[C@@H](O)[C@H](O[C@@H]1O[C@H](CO)[C@H](O)[C@H](O)[C@H]1O)[C@H](O)CO)N1CCN(c2ccc(-c3c4nc(c(-c5ccc(N6CCN(C(=O)[C@H](O)[C@@H](O)[C@H](O[C@@H]7O[C@H](CO)[C@H](O)[C@H](O)[C@H]7O)[C@H](O)CO)CC6)cc5)c5ccc([nH]5)c(-c5ccc(N6CCN(C(=O)[C@H](O)[C@@H](O)[C@H](O[C@@H]7O[C@H](CO)[C@H](O)[C@H](O)[C@H]7O)[C@H](O)CO)CC6)cc5)c5nc(c(-c6ccc(N7CCN(C(=O)[C@H](O)[C@@H](O)[C@H](O[C@@H]8O[C@H](CO)[C@H](O)[C@H](O)[C@H]8O)[C@H](O)CO)CC7)cc6)c6ccc3[nH]6)C=C5)C=C4)cc2)CC1`, the figures for the Drug uptake result in the series with Zone of skin, in the series on Liver [1] and with Liver [2] were “Not Active”, “Active” and “Not Active”, respectively.
As to `O=C([C@H](O)[C@@H](O)[C@H](O[C@@H]1O[C@H](CO)[C@H](O)[C@H](O)[C@H]1O)[C@H](O)CO)N1CCN(c2ccc(-c3c4nc(c(-c5ccccc5)c5ccc([nH]5)c(-c5ccccc5)c5nc(c(-c6ccccc6)c6ccc3[nH]6)C=C5)C=C4)cc2)CC1`, the Activity in series [3] is on record as 8%; in [4], 8%; in [5], 75%; in [6], 8%; in series [7], 75%; in [9], 75%. Besides, the IC50 was 46 µg/mL (≈ 44.3 µM) in series [8], 43 µg/mL (≈ 41.4 µM) in series [10] and 48 µg/mL (≈ 46.2 µM) in [11].
As to `C1=Cc2nc1c(-c1ccccc1)c1nc(c(-c3ccccc3)c3ccc([nH]3)c(-c3ccccc3)c3ccc([nH]3)c2-c2ccccc2)C=C1` [TETRAPHENYLPORPHYRIN], the solubility result in series [12] is on record as “Insoluble”. In addition, the IC50 in series [8], in [10] and in series [11] was > 50 µg/mL in each case.
